Laboratory results published in patent publication US20170013861A1, “BIOLOGICAL FORMULATION FOR COMPLEMENTING AN ANIMAL FEED, PROCESS FOR OBTAINING A BIOLOGICAL FORMULATION FOR AN ANIMAL FEED AND AN ANIMAL FEED” (PHB INDUSRIAL S.A., priority 2014, published 2017).

Legend:
[1] = tested on: broiler chickens; test: Feed complementation for broiler chickens, whole productive cycle, 1 to 42 days (Example 6); type: in vivo; conditions: for Alimentary conversion / Average weight gain (GPM)/chicken / Feed consumption / GPD / % death: 0 to 42 days; for % death: broiler chickens; for Average weight (PM)/chicken, PM2: final weight, 42 days
From the text: For this study there were used 2.352 chickens, males of the Cobb lineage 500, received with one day of life. The chickens were housed in 42 boxes, with 56 chickens being in each experimental unit. These chickens were submitted to different treatments, distributed randomly in 06 blocks of 07 experimental units, with two daily observations being made, in order to evaluate the general conditions of the batch, such as temperature, illumination, water, feed and conditions of the bed of each one of the boxes.
The treatments of each chicken batch were based on a pattern feed, with the following composition:
From this basal feed, the different treatments were developed as follows:
The results obtained with these different treatments are shown in the Table—Average weight, average weight gain, average feed consumption, alimentary conversion and mortality during the experimental period from 0 to 42 days: […]

[2] = tested on: broiler chickens; test: Feed complementation for broiler chickens, initial growing cycle, 1 to 21 days (Example 5); type: in vivo; conditions: 0 to 21 days
From the text: For this study it was used 336 chickens, males of Cobb lineage 500, received with one day of life. The chickens were housed in 28 cages, with 12 chickens being in each experimental unit. These chickens were submitted to 7 different treatments, each with 4 repetitions, distributed randomly in 7 blocks of 4 experimental units, with two daily observations being made, in order to evaluate the general conditions of the batch, such as temperature, illumination, water, feed and conditions of the bed of each one of the boxes.
The treatments of each batch of chickens were based on a pattern feed. Using this basal feed, the different treatments were developed as follows:
The quantity of formulation applied in the feeds presented as reference the used quantity of butyrates/feed ton, that is, within the interval from 200 g/feed ton to 1.000 g/feed ton.
The results obtained with these different treatments are related in the Table—Average weight, average weight gain, average feed consumption, alimentary conversion and mortality during the experimental period from 0 to 21 days: […]

`CCCC(=O)[O-].[Na+]` [Treatment T2, sodium butyrate] was tested, and the Alimentary conversion [1] was 1.789, the “Average weight gain (GPM)/chicken” value [1] was 2.709 abc kg and the Feed consumption [1] was 5.058 kg. For the same molecule, the GPD [1] was 65.5 a g/day, the “% death” value [1] was 6.47% and the “Average weight (PM)/chicken, PM2” value [1] was 2.753 abc kg. It also gave an Alimentary conversion [2] of 1.371 and an Accumulated mortality % ([2]; broiler chickens) of 10.41%.

“calcium butyrate [T3 - Ca, butyrate 45%]” was tested, and the Alimentary conversion [1] was 1.874, the “Average weight gain (GPM)/chicken” value [1] was 2.655 bc kg and the Feed consumption [1] was 5.116 kg. The GPD [1] was 64.3 b g/day, the “% death” value [1] was 4.91% and the “Average weight (PM)/chicken, PM2” value [1] was 2.699 c kg.
